In US6455727B1, “Process for preparing carbetapentane tannate” (Jame Fine Chemicals, Inc., priority 2001, dated 2002):
Counter-ions that a name gives are not always drawn. Like-named read-outs stand apart in the source and are kept apart here.

Legend:
[1] = background statement, cited from earlier work; for solubility in alcohol: alcohol(s)
[2] = solubility in water, alcohols and methylene chloride; assay type: physicochemical; conditions: description of product and starting materials

Row | Compound | solubility in alcohol [1] | solubility in water [1] | solubility in alcohols [2] | solubility in methylene chloride [2] | solubility in water [2]
1 | CCN(CC)CCOCCOC(=O)C1(c2ccccc2)CCCC1 [carbetapentane citrate] | slightly soluble | freely soluble | – | – | –
2 | CCN(CC)CCOCCOC(=O)C1(c2ccccc2)CCCC1 [carbetapentane, 2-(diethylaminoethoxy)ethyl-1-phenyl-1-cyclopentanecarboxylate] | – | insolubility | soluble | soluble | insoluble
3 | O=C(OC[C@H]1O[C@@H](OC(=O)c2cc(O)c(O)c(OC(=O)c3cc(O)c(O)c(O)c3)c2)[C@H](OC(=O)c2cc(O)c(O)c(OC(=O)c3cc(O)c(O)c(O)c3)c2)[C@@H](OC(=O)c2cc(O)c(O)c(OC(=O)c3cc(O)c(O)c(O)c3)c2)[C@@H]1OC(=O)c1cc(O)c(O)c(OC(=O)c2cc(O)c(O)c(O)c2)c1)c1cc(O)c(O)c(OC(=O)c2cc(O)c(O)c(O)c2)c1 [tannic acid] | highly soluble | highly soluble | soluble | insoluble | soluble
4 | carbetapentane tannate | – | – | soluble | insoluble | slightly soluble
